Active and inactive are the calls of the source.
Assays:
cells [1] = assay type: functional, cell-based
[2] = toxicity toward HepG2 liver cells – cell-based, plate reader, cherry-pick, antagonist series, cytotoxicity control, dose response (AID 743416); assay type: functional
[3] = A549 cell cytotoxicity, dose response, cytotoxicity control, plate reader, cherry-pick, antagonist series (AID 743412); assay type: functional, cell-based
[4] = molecular target: T1, Nuclear receptor subfamily 0 group B member 1 (Homo sapiens, UniProt P51843); assay type: functional, cell-based;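 note: HEK293T cells transfected with SF-1 and DAX-1 plus StAR promoter luciferase reporter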
T1 sequence (P51843 whole entry): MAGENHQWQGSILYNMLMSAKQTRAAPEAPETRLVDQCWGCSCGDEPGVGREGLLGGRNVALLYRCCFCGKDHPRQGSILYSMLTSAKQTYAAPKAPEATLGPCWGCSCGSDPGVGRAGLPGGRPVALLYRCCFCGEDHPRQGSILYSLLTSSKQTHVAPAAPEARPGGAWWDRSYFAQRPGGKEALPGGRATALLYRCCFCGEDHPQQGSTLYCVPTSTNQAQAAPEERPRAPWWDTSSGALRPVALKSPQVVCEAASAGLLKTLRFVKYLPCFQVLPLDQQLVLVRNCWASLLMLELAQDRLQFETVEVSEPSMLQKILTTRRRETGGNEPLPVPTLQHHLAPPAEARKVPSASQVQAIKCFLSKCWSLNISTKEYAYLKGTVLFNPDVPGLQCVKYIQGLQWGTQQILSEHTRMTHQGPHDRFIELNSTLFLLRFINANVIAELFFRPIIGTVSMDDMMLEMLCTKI

[5] = blockade of melanocortin 4 receptor signaling – cell-based, plate reader, cherry pick, counter-screen for LGR2 antagonist project, dose response (AID 743444); assay type: functional;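 note: transfected HEK 293 cells stimulated with alpha-MSH peptide; potency of inhibitors of the alpha-MSH evoked signal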
[6] = blockers of bursicon-stimulated LGR2 cAMP reporter – cell-based, HEK293, CRE-luciferase reporter, cherry pick, set 2, dose response (AID 743343); assay type: functional;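 note: transfected cells were stimulated with diluted bursicon conditioned medium after compound addition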
HeLa = test: ATP-based viability loss in HeLa cells – cell-based, CellTiter-Glo luminescence, cherry-pick samples, cytotoxicity control for MITF activator project, dose response (AID 540259); assay type: functional; settings: Homo sapiens
[7] = molecular target: Peroxisome proliferator-activated receptor gamma/Nuclear receptor coactivator 2 (Homo sapiens, UniProt P37231); assay type: functional;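 note: agonist potency for raising coactivator recruitment to the receptor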
[8] = molecular target: Peroxisome proliferator-activated receptor gamma/Nuclear receptor coactivator 3 (Homo sapiens, UniProt P37231); assay type: functional;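 note: agonist potency for raising coactivator recruitment to the receptor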
Peroxisome proliferator-activated receptor gamma/Nuclear receptor coactivator 3, sequence (P37231 whole entry): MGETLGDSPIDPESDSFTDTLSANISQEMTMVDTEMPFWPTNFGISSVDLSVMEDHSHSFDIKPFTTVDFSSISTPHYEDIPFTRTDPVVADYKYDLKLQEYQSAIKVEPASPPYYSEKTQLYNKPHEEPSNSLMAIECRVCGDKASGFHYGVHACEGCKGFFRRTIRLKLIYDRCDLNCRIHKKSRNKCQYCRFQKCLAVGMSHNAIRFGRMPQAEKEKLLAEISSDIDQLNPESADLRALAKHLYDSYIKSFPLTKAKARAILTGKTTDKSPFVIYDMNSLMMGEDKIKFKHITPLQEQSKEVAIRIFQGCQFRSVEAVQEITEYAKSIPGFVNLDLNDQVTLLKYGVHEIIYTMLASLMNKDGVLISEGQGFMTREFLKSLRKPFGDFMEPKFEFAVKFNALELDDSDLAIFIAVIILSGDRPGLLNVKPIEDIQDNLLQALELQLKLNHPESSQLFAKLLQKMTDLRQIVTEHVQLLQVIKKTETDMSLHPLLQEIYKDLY
Peroxisome proliferator-activated receptor gamma/Nuclear receptor coactivator 3, sequence (Q9Y6Q9 whole entry, further chain): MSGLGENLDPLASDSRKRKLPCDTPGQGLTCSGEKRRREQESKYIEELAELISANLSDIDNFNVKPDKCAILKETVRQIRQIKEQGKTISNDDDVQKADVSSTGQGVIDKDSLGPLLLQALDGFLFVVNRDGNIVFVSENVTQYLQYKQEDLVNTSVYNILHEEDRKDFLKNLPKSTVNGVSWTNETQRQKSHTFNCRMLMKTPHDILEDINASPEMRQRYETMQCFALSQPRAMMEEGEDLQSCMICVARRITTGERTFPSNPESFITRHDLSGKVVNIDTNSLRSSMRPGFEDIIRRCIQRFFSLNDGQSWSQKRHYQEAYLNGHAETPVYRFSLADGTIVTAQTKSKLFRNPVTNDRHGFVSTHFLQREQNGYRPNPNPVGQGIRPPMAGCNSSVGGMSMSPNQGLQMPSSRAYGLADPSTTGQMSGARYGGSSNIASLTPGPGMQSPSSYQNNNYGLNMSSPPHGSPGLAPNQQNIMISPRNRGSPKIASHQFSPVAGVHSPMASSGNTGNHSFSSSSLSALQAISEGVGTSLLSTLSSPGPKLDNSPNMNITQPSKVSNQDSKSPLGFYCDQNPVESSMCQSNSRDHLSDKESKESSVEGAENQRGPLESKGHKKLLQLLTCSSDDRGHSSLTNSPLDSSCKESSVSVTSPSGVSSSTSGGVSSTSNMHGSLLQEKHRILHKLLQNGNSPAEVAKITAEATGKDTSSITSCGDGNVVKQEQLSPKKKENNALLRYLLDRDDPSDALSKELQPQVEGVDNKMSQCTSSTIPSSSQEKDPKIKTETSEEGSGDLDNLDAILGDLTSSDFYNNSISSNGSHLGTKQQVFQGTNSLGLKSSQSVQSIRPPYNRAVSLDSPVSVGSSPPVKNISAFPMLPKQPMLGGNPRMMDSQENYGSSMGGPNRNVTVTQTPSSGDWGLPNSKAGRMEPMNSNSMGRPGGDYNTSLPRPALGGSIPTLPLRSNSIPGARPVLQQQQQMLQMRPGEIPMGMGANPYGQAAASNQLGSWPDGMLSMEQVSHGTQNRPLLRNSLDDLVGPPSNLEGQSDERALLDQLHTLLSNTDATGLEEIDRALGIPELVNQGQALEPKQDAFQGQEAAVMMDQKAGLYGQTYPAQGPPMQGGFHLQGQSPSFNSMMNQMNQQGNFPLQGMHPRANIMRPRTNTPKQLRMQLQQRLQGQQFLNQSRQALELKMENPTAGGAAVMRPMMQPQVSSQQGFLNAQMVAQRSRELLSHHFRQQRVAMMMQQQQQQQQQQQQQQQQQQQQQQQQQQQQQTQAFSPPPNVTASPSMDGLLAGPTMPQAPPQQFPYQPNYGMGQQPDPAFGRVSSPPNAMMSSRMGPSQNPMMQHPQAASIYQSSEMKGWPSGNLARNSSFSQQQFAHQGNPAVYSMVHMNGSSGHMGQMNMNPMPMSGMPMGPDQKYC

[9] = molecular target: Peroxisome proliferator-activated receptor gamma/Nuclear receptor coactivator 1 (Homo sapiens, UniProt P37231); assay type: functional;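 note: agonist potency as compounds enhance coactivator SRC-1 recruitment to PPARgamma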
[10] = Luminescence Cell-Based Dose Confirmation HTS to Identify Inhibitors of Platelet Dense Granule Release. [Related pubchem assays: 1663 (Primary HTS), 1678 (Summary of Project)]; assay type: functional
Protein skinhead-1 = molecular target: T2, Protein skinhead-1 (Caenorhabditis elegans, UniProt P34707); assay type: functional
T2 sequence (P34707 whole entry): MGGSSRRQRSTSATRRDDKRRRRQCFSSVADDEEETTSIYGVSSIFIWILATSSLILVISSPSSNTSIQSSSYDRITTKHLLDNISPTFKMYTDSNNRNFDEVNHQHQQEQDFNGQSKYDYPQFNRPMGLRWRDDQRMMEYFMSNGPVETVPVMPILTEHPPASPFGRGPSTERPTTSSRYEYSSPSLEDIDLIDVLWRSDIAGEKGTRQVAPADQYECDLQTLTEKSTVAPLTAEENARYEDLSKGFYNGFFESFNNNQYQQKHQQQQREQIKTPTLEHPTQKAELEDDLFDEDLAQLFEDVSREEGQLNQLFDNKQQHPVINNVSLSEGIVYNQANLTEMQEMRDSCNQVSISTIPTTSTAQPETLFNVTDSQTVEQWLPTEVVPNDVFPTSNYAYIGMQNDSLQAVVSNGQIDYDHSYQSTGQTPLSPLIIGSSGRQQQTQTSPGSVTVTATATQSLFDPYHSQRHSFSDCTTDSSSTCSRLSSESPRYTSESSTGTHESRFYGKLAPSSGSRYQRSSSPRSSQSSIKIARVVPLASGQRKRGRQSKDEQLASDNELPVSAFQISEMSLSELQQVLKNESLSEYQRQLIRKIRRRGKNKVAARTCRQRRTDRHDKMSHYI

[11] = molecular target: Luciferin 4-monooxygenase (Photinus pyralis, UniProt P08659); test: inhibition of purified Photinus pyralis luciferase – biochemical, luminescence, dose response (AID 1891)
[12] = molecular target: T3, Long-chain-fatty-acid--AMP ligase FadD28 (Mycobacterium tuberculosis, UniProt P9WQ59); test: Fluorescence polarization aasay to screen for inhibitors that compete for the binding of FadD28 to a bisubstrate Measured in Biochemical System Using Plate Reader - 2147-01_Inhibitor_Dose_CherryPick_Activity.; assay type: functional, Mycobacterium tuberculosis H37Rv
T3 sequence (P9WQ59 whole entry): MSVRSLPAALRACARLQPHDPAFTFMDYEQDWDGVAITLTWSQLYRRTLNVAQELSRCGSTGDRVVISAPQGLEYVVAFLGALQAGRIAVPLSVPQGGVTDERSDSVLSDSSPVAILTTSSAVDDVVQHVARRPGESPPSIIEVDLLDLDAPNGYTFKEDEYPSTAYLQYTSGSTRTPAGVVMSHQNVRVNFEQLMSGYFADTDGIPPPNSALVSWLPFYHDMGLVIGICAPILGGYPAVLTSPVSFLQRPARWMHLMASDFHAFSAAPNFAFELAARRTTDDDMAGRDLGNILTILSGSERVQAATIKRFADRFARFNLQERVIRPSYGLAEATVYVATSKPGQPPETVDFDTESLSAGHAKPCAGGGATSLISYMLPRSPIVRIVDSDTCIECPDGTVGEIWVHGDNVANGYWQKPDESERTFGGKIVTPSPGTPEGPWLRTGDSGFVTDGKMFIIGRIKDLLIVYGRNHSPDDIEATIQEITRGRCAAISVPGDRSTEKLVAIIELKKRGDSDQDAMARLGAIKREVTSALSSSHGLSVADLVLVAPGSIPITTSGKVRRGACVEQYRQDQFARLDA

Fatty acid synthase [13] = molecular target: T4, Fatty acid synthase (Homo sapiens, UniProt P49327); test: inhibition of human FAS-TE enzyme activity – biochemical, kinetic fluorescence intensity, dose response (AID 624326); assay type: functional;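 note: rate of fluorescence rise from hydrolysis of a fluorogenic O-methyl fluorescein ester substrate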
T4 sequence (P49327 whole entry): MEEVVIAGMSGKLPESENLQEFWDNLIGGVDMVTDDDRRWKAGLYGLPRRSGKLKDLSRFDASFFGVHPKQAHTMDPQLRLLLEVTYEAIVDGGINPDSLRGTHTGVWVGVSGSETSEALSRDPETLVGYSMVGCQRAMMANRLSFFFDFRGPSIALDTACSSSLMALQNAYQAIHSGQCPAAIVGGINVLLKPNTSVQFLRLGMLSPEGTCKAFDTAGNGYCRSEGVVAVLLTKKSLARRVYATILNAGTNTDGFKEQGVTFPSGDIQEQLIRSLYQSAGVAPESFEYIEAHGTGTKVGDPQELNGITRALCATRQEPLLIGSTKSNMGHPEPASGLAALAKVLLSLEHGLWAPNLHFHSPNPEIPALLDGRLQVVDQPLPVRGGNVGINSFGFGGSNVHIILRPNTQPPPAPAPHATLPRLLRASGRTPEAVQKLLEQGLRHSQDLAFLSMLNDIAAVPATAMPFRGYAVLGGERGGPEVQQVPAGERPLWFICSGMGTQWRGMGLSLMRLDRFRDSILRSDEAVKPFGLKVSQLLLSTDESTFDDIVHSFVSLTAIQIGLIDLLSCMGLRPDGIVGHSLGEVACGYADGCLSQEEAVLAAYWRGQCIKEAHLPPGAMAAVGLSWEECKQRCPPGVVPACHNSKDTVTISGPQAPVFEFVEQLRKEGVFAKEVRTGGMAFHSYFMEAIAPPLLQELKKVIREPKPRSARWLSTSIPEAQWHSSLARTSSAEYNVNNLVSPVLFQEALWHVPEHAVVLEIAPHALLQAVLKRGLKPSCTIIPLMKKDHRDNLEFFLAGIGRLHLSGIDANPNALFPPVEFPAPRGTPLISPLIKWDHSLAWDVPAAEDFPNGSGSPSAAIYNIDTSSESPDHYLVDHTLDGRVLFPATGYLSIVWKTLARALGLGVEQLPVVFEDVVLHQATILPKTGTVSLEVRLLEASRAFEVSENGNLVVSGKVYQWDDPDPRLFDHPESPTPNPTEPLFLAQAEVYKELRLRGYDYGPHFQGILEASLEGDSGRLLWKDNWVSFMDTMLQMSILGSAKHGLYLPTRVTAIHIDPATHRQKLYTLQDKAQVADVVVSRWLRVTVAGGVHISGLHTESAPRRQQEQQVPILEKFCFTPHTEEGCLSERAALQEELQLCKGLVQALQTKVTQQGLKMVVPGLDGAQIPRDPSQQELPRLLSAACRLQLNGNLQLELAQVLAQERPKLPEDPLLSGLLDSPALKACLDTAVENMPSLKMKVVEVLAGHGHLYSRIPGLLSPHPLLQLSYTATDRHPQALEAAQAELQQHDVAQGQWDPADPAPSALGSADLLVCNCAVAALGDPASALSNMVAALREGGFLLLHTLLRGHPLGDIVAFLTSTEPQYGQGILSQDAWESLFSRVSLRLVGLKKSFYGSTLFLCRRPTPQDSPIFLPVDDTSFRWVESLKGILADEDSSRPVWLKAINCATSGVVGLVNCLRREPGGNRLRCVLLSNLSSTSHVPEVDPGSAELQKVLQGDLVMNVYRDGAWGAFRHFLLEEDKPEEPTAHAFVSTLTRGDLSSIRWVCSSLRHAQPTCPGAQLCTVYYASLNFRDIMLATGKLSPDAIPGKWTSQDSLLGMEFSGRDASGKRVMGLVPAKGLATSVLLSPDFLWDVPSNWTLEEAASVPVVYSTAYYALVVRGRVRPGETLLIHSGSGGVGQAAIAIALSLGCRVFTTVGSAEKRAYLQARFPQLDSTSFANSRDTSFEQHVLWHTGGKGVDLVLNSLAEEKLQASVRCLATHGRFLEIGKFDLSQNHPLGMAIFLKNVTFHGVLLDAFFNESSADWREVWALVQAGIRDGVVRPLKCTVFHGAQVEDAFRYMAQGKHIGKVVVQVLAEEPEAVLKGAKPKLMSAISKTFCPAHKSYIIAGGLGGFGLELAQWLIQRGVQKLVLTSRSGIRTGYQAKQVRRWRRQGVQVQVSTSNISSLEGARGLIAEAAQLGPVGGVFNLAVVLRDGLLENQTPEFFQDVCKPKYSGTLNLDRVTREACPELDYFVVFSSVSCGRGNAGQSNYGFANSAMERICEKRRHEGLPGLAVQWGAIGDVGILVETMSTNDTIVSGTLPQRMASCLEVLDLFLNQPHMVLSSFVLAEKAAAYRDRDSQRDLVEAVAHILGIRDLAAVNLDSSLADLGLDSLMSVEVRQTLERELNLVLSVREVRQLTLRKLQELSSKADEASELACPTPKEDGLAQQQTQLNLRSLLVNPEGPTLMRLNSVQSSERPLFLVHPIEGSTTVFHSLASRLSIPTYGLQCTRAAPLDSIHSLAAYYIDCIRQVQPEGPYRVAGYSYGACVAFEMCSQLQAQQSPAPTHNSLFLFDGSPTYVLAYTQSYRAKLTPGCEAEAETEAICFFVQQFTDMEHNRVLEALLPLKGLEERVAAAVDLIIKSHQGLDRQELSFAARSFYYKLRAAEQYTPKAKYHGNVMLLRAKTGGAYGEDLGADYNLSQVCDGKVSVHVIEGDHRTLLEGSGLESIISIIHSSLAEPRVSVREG

Fatty acid synthase [14] = molecular target: T4, Fatty acid synthase; test: inhibition of human FAS-TE enzyme activity – biochemical, endpoint fluorescence intensity, uHTS hits, dose response (AID 624327); assay type: functional;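 note: fluorescence from hydrolysis of an O-methyl fluorescein acyl ester substrate by the enzyme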
Cytochrome P450 3A4 = Cytochrome P450 3A4 (Homo sapiens, UniProt P08684); settings: Potency;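 note: confirmatory qHTS run detecting inhibitors and substrates of CYP3A4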
[15] = molecular target: Induced myeloid leukemia cell differentiation protein Mcl-1 (Homo sapiens, UniProt Q07820); assay type: functional
Large T antigen = Large T antigen (Simian virus 40, UniProt P03070); assay type: functional, Betapolyomavirus macacae;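 note: Confirmatory-stage PubChem screen for compounds that inhibit SV40 T antigen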
Albumin = Albumin (Bos taurus, UniProt P02769); test: Counterscreen for inhibitors of T-cell receptor (TCR)-CD3 interaction: Fluorescence-based biochemical high throughput dose response assay to identify inhibitors of T-cell receptor (TCR)-CD3 interaction using a TAMRA-labeled BSA probe.; assay type: functional
Albumin, sequence (P02769 whole entry): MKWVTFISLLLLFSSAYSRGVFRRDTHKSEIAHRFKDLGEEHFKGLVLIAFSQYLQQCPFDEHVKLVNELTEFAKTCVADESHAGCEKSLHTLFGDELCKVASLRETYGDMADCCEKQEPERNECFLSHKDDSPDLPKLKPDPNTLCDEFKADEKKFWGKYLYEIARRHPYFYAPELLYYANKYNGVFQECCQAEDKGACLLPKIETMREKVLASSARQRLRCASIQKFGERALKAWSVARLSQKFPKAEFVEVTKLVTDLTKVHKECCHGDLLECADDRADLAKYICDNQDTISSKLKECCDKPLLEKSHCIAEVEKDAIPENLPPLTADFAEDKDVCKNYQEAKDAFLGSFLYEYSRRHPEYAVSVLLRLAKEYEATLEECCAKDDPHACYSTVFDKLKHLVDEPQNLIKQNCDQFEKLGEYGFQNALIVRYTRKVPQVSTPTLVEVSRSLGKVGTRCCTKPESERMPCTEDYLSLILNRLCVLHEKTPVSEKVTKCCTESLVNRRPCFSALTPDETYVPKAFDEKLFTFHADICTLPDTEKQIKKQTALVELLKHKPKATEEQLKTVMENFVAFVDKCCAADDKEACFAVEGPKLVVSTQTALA

cells [16] = test: cells
[17] = molecular target: T5, Oxysterols receptor LXR-beta (Homo sapiens, UniProt P55055); assay type: functional, cell-based;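 note: Cell-based luminescence dose-response assay of agonist activity at LXR, run as a confirmatory counterscreen to a daf-12 agonist screen; HEK293 cells with Gal4-LXR fusion and GAL4-driven luciferase reporter; agonist potency from rising luciferase signal of a Gal4-LXR reporter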
T5 sequence (P55055 whole entry): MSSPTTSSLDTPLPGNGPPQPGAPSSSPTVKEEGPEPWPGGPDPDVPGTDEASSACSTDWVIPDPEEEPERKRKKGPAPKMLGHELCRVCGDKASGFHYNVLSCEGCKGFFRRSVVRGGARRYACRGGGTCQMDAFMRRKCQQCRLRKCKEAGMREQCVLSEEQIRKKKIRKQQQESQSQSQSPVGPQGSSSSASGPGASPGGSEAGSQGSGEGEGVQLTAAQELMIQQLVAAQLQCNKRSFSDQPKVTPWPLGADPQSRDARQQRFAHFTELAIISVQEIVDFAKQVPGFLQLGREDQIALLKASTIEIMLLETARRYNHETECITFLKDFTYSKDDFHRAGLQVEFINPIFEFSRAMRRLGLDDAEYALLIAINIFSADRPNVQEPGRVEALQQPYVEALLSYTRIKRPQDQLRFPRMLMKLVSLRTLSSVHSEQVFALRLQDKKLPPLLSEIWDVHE

Caspase-6 = molecular target: T6, Caspase-6 (Homo sapiens, UniProt P55212); test: inhibition of CASP6 peptide cleavage – biochemical, VEID-R110 fluorescence, cherry-pick, dose response (AID 720632)
T6 sequence (P55212 whole entry): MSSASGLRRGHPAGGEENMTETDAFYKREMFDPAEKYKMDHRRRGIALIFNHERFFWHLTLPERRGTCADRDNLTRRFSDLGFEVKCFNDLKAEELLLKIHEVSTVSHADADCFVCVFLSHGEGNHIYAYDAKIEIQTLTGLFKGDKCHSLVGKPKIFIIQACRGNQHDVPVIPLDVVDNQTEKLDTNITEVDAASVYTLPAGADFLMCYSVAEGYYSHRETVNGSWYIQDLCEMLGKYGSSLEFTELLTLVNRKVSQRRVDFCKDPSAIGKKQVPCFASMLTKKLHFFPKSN

[18] = molecular target: T7, Zinc finger protein mex-5 (Caenorhabditis elegans, UniProt Q9XUB2); test: potency of MEX-5 RNA-binding blockers – biochemical, C. elegans, fluorescence polarization, dose response (AID 1960)
T7 sequence (Q9XUB2 whole entry): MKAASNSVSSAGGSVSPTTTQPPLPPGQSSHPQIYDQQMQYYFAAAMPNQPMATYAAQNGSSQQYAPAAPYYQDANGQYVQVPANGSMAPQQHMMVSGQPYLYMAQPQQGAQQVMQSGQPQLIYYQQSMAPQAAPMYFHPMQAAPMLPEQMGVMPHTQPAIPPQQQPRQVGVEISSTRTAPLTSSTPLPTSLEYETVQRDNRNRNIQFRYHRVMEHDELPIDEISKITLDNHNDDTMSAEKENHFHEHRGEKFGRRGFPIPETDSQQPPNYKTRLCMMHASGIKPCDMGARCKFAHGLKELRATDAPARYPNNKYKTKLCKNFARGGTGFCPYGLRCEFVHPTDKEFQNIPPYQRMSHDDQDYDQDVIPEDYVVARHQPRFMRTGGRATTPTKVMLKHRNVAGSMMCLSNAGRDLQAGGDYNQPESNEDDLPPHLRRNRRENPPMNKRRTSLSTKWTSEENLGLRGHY

[19] = molecular target: T8, RNA-binding protein pos-1 (Caenorhabditis elegans, UniProt G5EF15); test: disruptors of C. elegans POS-1 RNA interaction – biochemical, fluorescence polarization, dose response (AID 1964);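 note: purified POS-1 fused to maltose binding protein made in E. coli; potency of compounds blocking POS-1 binding to fluorescent RNA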
T8 sequence (G5EF15 whole entry): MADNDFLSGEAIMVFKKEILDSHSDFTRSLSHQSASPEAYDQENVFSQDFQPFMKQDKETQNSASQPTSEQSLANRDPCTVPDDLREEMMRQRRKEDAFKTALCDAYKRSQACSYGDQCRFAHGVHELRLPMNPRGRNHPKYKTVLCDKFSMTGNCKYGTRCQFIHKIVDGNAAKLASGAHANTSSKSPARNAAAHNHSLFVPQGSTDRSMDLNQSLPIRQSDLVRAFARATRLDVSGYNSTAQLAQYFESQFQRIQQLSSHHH

SMILES: CC(C)c1nnc(NC(=O)c2ccc3c(c2)OCO3)s1
- IC50 (cells [1]): > 67.6 µM (inactive)
- AC50 [2]: > 52 µM (inactive)
- AC50 [3]: > 52 µM (inactive)
- IC50 [4]: > 0.278 µM (active)
- AC50 [5]: 5.43 µM (active)
- AC50 [6]: 4.95 µM (active)

SMILES: COCCn1c(C)cc(C(=O)CN2C(=O)NC3(CCCCCC3)C2=O)c1C
- IC50 (cells [1]): > 67.5 µM (inactive)
- IC50 [4]: > 67.5 µM (inactive)

SMILES: CS(=O)(=O)N1CCc2cc(C(=O)Nc3ccccc3Br)ccc21
- AC50 (HeLa): > 350 µM (inactive)

SMILES: Cc1ccc(OCC(=O)NNC(=O)C(=O)NC(C)(C)C)cc1
- EC50 [7]: > 79.4 µM (not active)
- EC50 [8]: > 79.4 µM (not active)
- EC50 [9]: > 79.4 µM (not active)

SMILES: O=C(/C=C/Nc1ccc(F)cc1F)c1ccco1
- IC50 (cells [1]): > 67.5 µM (inactive)
- IC50 [4]: > 67.5 µM (inactive)
- EC50 [10]: 4.36 µM (active)
- IC50 (Protein skinhead-1): 17 µM (active)
- EC50 [11]: 0.812 µM (active)

SMILES: C=CCOc1c(Br)cc(/C=N/Nc2ccc(C(=O)O)cc2)cc1OCC
- AC50 [12]: 62.7 µM (active)
- IC50 (Fatty acid synthase [13]): 10.5 µM (active)
- IC50 (Fatty acid synthase [14]): 12.6 µM (active)

SMILES: COc1ccc(-c2cc(=O)c3cc(OC)ccc3o2)cc1 [6,4'-DIMETHOXYFLAVONE]
- IC50 (cells [1]): > 67.5 µM (inactive)
- AC50 (Cytochrome P450 3A4): 3.16 µM (inconclusive)
- IC50 [4]: > 67.5 µM (inactive)

SMILES: CCN(N=O)c1ccc(C=C2C=Cc3ccccc32)cc1
- AC50 (HeLa): 68.9 µM (active)

SMILES: Cc1ccc2oc(Nc3nc(C)c(C)c(C)n3)nc2c1
- AC50 (HeLa): 192 µM (active)

SMILES: O=C1NN(c2ccccc2)C(=O)/C1=C\c1ccc(-c2cc([N+](=O)[O-])ccc2O)o1
- AC50 [12]: 8.08 µM (active)
- IC50 [15]: 10.7 µM (active)
- IC50 (Large T antigen): 20.7 µM (active)

SMILES: CCOc1ccc(NC2=NN=C(c3cc(C)n(CC4CCCO4)c3C)CS2)cc1 (stereo not drawn)
- EC50 [7]: > 79.4 µM (not active)
- EC50 [8]: > 79.4 µM (not active)
- EC50 [9]: > 79.4 µM (not active)

SMILES: CC(=O)NNC(=S)NC(=O)c1ccc(C)cc1
- IC50 (Albumin): > 94 µM (inactive)

SMILES: Cc1ccccc1S(=O)(=O)Oc1ccc2ccc(O)cc2c1
- AC50 (HeLa): 49.4 µM (active)

SMILES: Cc1ccc2[nH]c(CSc3nc(C)cc(C)c3C#N)nc2c1
- EC50 (cells [16]): > 67.5 µM (inactive)
- EC50 [17]: > 67.5 µM (inactive)

SMILES: Clc1ccc(-c2ccc(SCc3ccccn3)nn2)cc1
- AC50 (HeLa): 50.7 µM (active)

SMILES: O=C(NNC(=O)c1ccccc1F)c1cccc(-n2cccc2)c1
- IC50 (Albumin): > 94 µM (inactive)
- AC50 (Caspase-6): 1.2 µM (active)

SMILES: O=C(c1cccs1)c1ccc(-c2cccs2)s1
- EC50 (cells [16]): > 67.5 µM (inactive)
- EC50 [17]: > 67.5 µM (inactive)
- EC50 [18]: > 300 µM (not active)
- IC50 (Protein skinhead-1): 26.5 µM (active)
- EC50 [19]: 215 µM (active)
